Source: patent US8269000B2, “Substituted pyrimidine and triazine compounds” (Gruenenthal GmbH, priority 2008, dated 2012)
Counter-ions that a name gives are not always drawn.

Tests used:
[1] = molecular target: T1, human B1R (Homo sapiens, UniProt P46663); assay: FLIPR Ca2+ functional study on bradykinin receptor 1 (hB1R CHO K1 cells); type: cell-based; conditions: % inhibition human B1R at 10 μM, read-out: % inh. (hum. B1R) 10 μM
T1 construct: expressed in transfected cells; host or cells: CHO K1 cells
T1 sequence (P46663 1-353): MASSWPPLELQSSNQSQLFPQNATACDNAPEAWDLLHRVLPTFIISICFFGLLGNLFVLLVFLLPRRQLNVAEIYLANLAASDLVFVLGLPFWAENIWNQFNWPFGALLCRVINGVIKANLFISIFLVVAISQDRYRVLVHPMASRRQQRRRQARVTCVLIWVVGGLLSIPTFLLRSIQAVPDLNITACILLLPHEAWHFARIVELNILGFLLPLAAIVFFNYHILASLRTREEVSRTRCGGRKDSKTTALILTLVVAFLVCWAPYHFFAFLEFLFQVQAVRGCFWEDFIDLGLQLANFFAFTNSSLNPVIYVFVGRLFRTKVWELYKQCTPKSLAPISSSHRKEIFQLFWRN
Method: The agonistic or antagonistic activity of substances can be quantified on the bradykinin receptor 1 (B1R) of the species human and rat using ectopically expressing cell lines (CHO K1 cells) and with the aid of a Ca^2+-sensitive dye (Fluo-4) using a fluorescent imaging plate reader (FLIPR). The indication in % activation is based on the Ca^2+ signal after addition of Lys-Des-Arg^9-bradykinin (0.5 nM) or Des-Arg^9-bradykinin (100 nM). Antagonists lead to suppression of the Ca^2+ influx after the addition of the agonist. % Inhibition compared with the maximum achievable inhibition is indicated.
The agonistic or antagonistic activity of substances can be determined on the bradykinin receptor 1 (B1R) of the species human and rat using the following assay. According to this assay, the Ca^2+ influx through the channel is quantified with the aid of a Ca^2+-sensitive dye (Fluo-4 type, Molecular Probes Europe BV, Leiden, Netherlands) using a Fluorescent Imaging Plate Reader (FLIPR, Molecular Devices, Sunnyvale, USA).
Chinese hamster ovary cells (CHO K1 cells) which have been stably transfected with the human B1R gene (hB1R cells) or with the B1R gene of the rat (rB1R cells) are used. For functional studies, the cells are plated out on black 96-well plates having a clear base (BD Biosciences, Heidelberg, Germany or Greiner, Frickenhausen, Germany) in a density of 20,000-35,000 cells/well. The cells are left overnight at 37° C. and with 5% CO2 in culture medium (hB1R cells: Nutrient Mixture Ham's F12, Gibco Invitrogen GmbH, Karlsruhe, Germany or DMEM, Sigma-Aldrich, Taufkirchen, Germany; rB1R cells: D-MEM/F12, Gibco Invitrogen GmbH, Karlsruhe, Germany), with 10 vol.% FBS (fetal bovine serum, Gibco Invitrogen GmbH, Karlsruhe, Germany or PAN Biotech GmbH, Aidenbach, Germany). On the following day, the cells are loaded for 60 minutes at 37° C. with 2.13 μM Fluo-4 (Molecular Probes Europe BV, Leiden, Netherlands) in HBSS buffer (Hank's buffered saline solution, Gibco Invitrogen GmbH, Karlsruhe, Germany) […] (Sigma-Aldrich, Taufkirchen, Germany) and 10 mM HEPES (Sigma-Aldrich, Taufkirchen, Germany). The plates are then washed twice with HBSS buffer, and HBSS buffer additionally containing 0.1% BSA (bovine serum albumin; Sigma-Aldrich, Taufkirchen, Germany), 5.6 mM glucose and 0.05% gelatin (Merck KGaA, Darmstadt, Germany) is added to the plates. After incubation for a further 20 minutes at room temperature, the plates are inserted into the FLIPR for Ca^2+ measurement. Alternatively, washing is carried out with buffer A (15 mM HEPES, 80 mM NaCl, 5 mM KCl, 1.2 mM CaCl2, 0.7 mM MgSO4, 2 g/l glucose, 2.5 mM probenecid) followed by loading with buffer A with added 2.5 μM Fluo-4 and 0.025% Pluronic F127 (Sigma-Aldrich, Taufkirchen, Germany). The cells are then washed twice with buffer A and incubated for 30 minutes at room temperature with buffer A additionally containing 0.05% BSA and 0.05% gelatin and are then inserted into the FLIPR for Ca^2+ measurement. The Ca^2+-dependent fluorescence is measured before and after the addition of substances (λex=488 nm, λem=540 nm). Quantification is carried out by measuring the highest fluorescence intensity (FC, fluorescence counts) over time.
The FLIPR protocol consists of two substance additions. Test substances (10 μM) are first pipetted onto the cells and the Ca^2+ influx is compared with the control (hB1R: Lys-Des-Arg^9-bradykinin>=50 nM; rB1R: Des-Arg^9-bradykinin 10 μM). This gives the activation in %, based on the Ca^2+ signal after addition of Lys-Des-Arg^9-bradykinin (>=50 nM) or Des-Arg^9-bradykinin (10 μM). After 10-20 minutes' incubation, Lys-Des-Arg^9-bradykinin (hB1R) or Des-Arg^9-bradykinin (rB1R) is applied in the concentration of the EC80, and the influx of Ca^2+ is likewise determined. Antagonists lead to suppression of the Ca^2+ influx. The % inhibition compared with the maximum achievable inhibition is calculated. […]

[2] = molecular target: T2, rat B1R (Rattus norvegicus, UniProt P97583); assay: FLIPR Ca2+ functional study on bradykinin receptor 1 (rB1R CHO K1 cells); type: cell-based; conditions: for inhibition at 10 µM: CHO-K1, % inhibition rat B1R at 10 μM, read-out: % inh. (rat B1R) 10 μM; for % inh. (rat B1R) 10 μM: % inhibition rat B1R at 10 μM
T2 construct: expressed in transfected cells; host or cells: CHO K1 cells
T2 sequence (P97583 1-337): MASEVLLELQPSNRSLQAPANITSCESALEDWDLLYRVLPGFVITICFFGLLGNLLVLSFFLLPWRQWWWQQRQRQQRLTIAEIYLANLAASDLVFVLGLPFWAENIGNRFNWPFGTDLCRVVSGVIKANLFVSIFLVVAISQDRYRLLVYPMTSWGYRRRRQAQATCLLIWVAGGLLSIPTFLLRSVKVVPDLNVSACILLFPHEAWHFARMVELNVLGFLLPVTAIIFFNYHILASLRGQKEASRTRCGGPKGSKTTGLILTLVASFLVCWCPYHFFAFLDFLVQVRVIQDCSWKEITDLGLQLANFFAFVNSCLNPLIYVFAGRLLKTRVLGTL
Procedure, shortened: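 CHO K1 cells stably expressing human or rat B1R were loaded with Fluo-4 and read on FLIPR (ex 488/em 540 nm, peak counts). Test compound (10 μM, or a concentration range for IC50) was added first for % activation versus control agonist; after 10-20 min, EC80 Lys-Des-Arg9-bradykinin (human) or Des-Arg9-bradykinin (rat) was added, giving % inhibition of maximum. n=2-3, N≥2.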

In the case of COc1cc(C)c(S(=O)(=O)N(C)CCOc2nccc(N3CCC(CCN4CCCC4)CC3)n2)c(C)c1 [Example G-001, 4-methoxy-N,2,6-trimethyl-N-[2-[[4-[4-(2-1-pyrrolidinylethyl)-1-piperidinyl]-2-pyrimidinyl]oxy]ethyl]benzenesulfonamide], the inhibition at 10 µM [1] is reported as 84% and the inhibition at 10 µM [2] is reported as 99%.

With COc1cc(C)c(S(=O)(=O)N(C)CCOc2nccc(N3CCN(c4ccncc4)CC3)n2)c(C)c1 [Example G-002, 4-methoxy-N,2,6-trimethyl-N-[2-[[4-[4-(4-pyridyl)-1-piperazinyl]-2-pyrimidinyl]oxy]ethyl]benzenesulfonamide] the inhibition at 10 µM [1] was 97% and the inhibition at 10 µM [2] was 109%.

For COc1cc(C)c(S(=O)(=O)N(C)CCOc2nccc(N(C)CCN3CCC(c4ccccc4)(N(C)C)CC3)n2)c(C)c1 [Example G-003, N-[2-[[4-[2-(4-dimethylamino-4-phenyl-1-piperidinyl)ethyl-methylamino]-2-pyrimidinyl]oxy]ethyl]-4-methoxy-N,2,6-trimethylbenzenesulfonamide], the inhibition at 10 µM [1] was 101% and the “% inh. (rat B1R) 10 μM” value ([2]; 10 µM) was 112%.

Compound COc1cc(C)c(S(=O)(=O)N2CCCCC2COc2nccc(N3CCC(OCCN4CCCC4)(c4cccnc4)CC3)n2)c(C)c1 (stereo not drawn) [Example G-004, 2-[[1-(4-methoxy-2,6-dimethylphenyl)sulfonyl-2-piperidinyl]methoxy]-4-[4-(3-pyridyl)-4-(2-1-pyrrolidinylethoxy)-1-piperidinyl]pyrimidine] has an inhibition at 10 µM [1] of 99% and an inhibition at 10 µM [2] of 73%.

In the case of COc1cc(C)c(S(=O)(=O)N(CCOc2nccc(N3CCC4(CCN(c5ccncc5)CC4)CC3)n2)C2CC2)c(C)c1 [Example G-005, N-cyclopropyl-4-methoxy-2,6-dimethyl-N-[2-[[4-[9-(4-pyridyl)-3,9-diazaspiro[5.5]undecan-3-yl]-2-pyrimidinyl]oxy]ethyl]benzenesulfonamide hydrochloride], the inhibition at 10 µM [1] is reported as 99% and the inhibition at 10 µM [2] is reported as 96%.

COc1cc(C)c(S(=O)(=O)N(CCOc2nccc(NCCC3CCN(c4ccncc4)CC3)n2)C2CC2)c(C)c1 [Example G-006, N-cyclopropyl-4-methoxy-2,6-dimethyl-N-[2-[[4-[2-[1-(4-pyridyl)-4-piperidinyl]ethylamino]-2-pyrimidinyl]oxy]ethyl]benzenesulfonamide] gave an inhibition at 10 µM [1] of 99% and an inhibition at 10 µM [2] of 94%.

Compound COc1cc(C)c(S(=O)(=O)N(CCOc2nccc(N3CCC(OCCN4CCCC4)(c4cccnc4)CC3)n2)C2CC2)c(C)c1 [Example G-007, N-cyclopropyl-4-methoxy-2,6-dimethyl-N-[2-[[4-[4-(3-pyridyl)-4-(2-1-pyrrolidinylethoxy)-1-piperidinyl]-2-pyrimidinyl]oxy]ethyl]benzenesulfonamide] has an inhibition at 10 µM [1] of 100% and an inhibition at 10 µM [2] of 97%.

In the case of COc1cc(C)c(S(=O)(=O)N(CCOc2nccc(N3CCC(O)(c4cccnc4)CC3)n2)C2CC2)c(C)c1 [Example G-008, N-cyclopropyl-N-[2-[[4-[4-hydroxy-4-(3-pyridyl)-1-piperidinyl]-2-pyrimidinyl]oxy]ethyl]-4-methoxy-2,6-dimethylbenzenesulfonamide], the inhibition at 10 µM [1] is reported as 77% and the inhibition at 10 µM [2] is reported as 98%.

In the case of Cc1cccc(Cl)c1S(=O)(=O)N(CCOc1nccc(N2CCC3(CCN(c4ccncc4)CC3)CC2)n1)C1CC1 [Example G-009, 2-chloro-N-cyclopropyl-6-methyl-N-[2-[[4-[9-(4-pyridyl)-3,9-diazaspiro[5.5]undecan-3-yl]-2-pyrimidinyl]oxy]ethyl]benzenesulfonamide], the inhibition at 10 µM [1] is reported as 97% and the inhibition at 10 µM [2] is reported as 91%.

COc1cc(C)c(S(=O)(=O)N(C)CCOc2ccnc(N(C)CCN3CCC(Oc4ccncc4)CC3)n2)c(C)c1 [H_CC-089, 4-methoxy-N,2,6-trimethyl-N-[2-[2-[methyl-[2-(4-pyridin-4-yloxy-piperidin-1-yl)-ethyl]-amino]-pyrimidin-4-yl]oxy-ethyl]benzenesulfonic acid amide] was tested, and the inhibition at 10 µM [2] was 58%.

For COc1cc(C)c(S(=O)(=O)N(C)CCOc2ccnc(N3CCC(OCCN4CCCC4)(c4cccc(F)c4)CC3)n2)c(C)c1 [H_CC-090, N-[2-[2-[4-(3-fluorophenyl)-4-(2-pyrrolidin-1-yl-ethoxy)-piperidin-1-yl]-pyrimidin-4-yl]oxy-ethyl]-4-methoxy-N,2,6-trimethyl-benzenesulfonic acid amide], the inhibition at 10 µM [2] was 83%.

COc1cc(C)c(S(=O)(=O)N2CCCCC2COc2ccnc(N3CCC(c4cccc(F)c4)(N4CCN(C)CC4)CC3)n2)c(C)c1 (stereo not drawn) [H_CC-091, 2-[4-(3-fluorophenyl)-4-(4-methyl-piperazin-1-yl)-piperidin-1-yl]-4-[[1-[(4-methoxy-2,6-dimethyl-phenyl)sulfonyl]-piperidin-2-yl]-methoxy]-pyrimidine] was tested, and the inhibition at 10 µM [2] was 73%.

Compound COc1cc(C)c(S(=O)(=O)N2CCC[C@H]2COc2ccnc(N3CCC(OCCN4CCCC4)(c4cccc(F)c4)CC3)n2)c(C)c1 [H_CC-092, 2-[4-(3-fluorophenyl)-4-(2-pyrrolidin-1-yl-ethoxy)-piperidin-1-yl]-4-[[(2S)-1-[(4-methoxy-2,6-dimethyl-phenyl)sulfonyl]-pyrrolidin-2-yl]-methoxy]-pyrimidine] has an inhibition at 10 µM [2] of 50%.

Compound COc1cc(C)c(S(=O)(=O)N(C)C(COc2ccnc(N3[C@@H]4CC[C@H]3CC(Oc3ccncc3)C4)n2)c2ccccc2)c(C)c1 (stereo partly drawn) [H_CC-093, 4-methoxy-N,2,6-trimethyl-N-[1-phenyl-2-[2-[(1S,5R)-3-pyridin-4-yloxy-8-azabicyclo[3.2.1]octan-8-yl]-pyrimidin-4-yl]oxy-ethyl]-benzenesulfonic acid amide] has an inhibition at 10 µM [2] of 63%.

“(1S,5R)-8-[4-[[(2S)-1-[(4-methoxy-2,6-dimethyl-phenyl)sulfonyl]-pyrrolidin-2-yl]-methoxy]-pyrimidin-2-yl]-3-pyridin-4-yloxy-8-azabicyclo[3.2.1]octane [H_CC-052]” was tested, and the “% inh. (rat B1R) 10 μM” value [2] was 72%.
